Results reported in paper PMC11377810, “A Gaussia luciferase reporter assay for the evaluation of coronavirus Nsp5/3CLpro activity” (Scientific Reports, 2024).

What was measured:
SARS-CoV-2 Nsp5 [1] = biological target: T1, SARS-CoV-2 Nsp5 (Severe acute respiratory syndrome coronavirus 2, UniProt P0DTD1); test: cell-based
SARS-CoV-2 Nsp5 [2] = biological target: T1, SARS-CoV-2 Nsp5
COVID-19 = details: cited from earlier work
HEK293T reporter cells [3] = test: MTT assay of cell metabolic activity of reporter cells; details: at the active concentrations ≥ 20 µM, Fig. 4c
HEK293T reporter cells [4] = test system: HEK293T reporter cells
[5] = in vivo, cited from earlier work

For `Cc1cccc(C)c1OCC(=O)N[C@@H](Cc1ccccc1)[C@@H](O)C[C@H](Cc1ccccc1)NC(=O)[C@H](C(C)C)N1CCCNC1=O` [Lopinavir], the IC50 (SARS-CoV-2 Nsp5 [1]; IC50, inhibition of Nsp5 reporter (Gaussia luciferase) activity) was 21 µM, the IC50 (SARS-CoV-2 Nsp5 [1]; IC50, inhibition of Nsp5 reporter activity, re-evaluated at lower nontoxic concentrations, additional concentrations, 8–64 µM range (Fig. 4e)) was 12 µM and the “concentrations that significantly decreased the Gaussia luciferase signal (lowest significantly active dose)” value (SARS-CoV-2 Nsp5 [2]) was no less than 20 µM. The “effective and non-cytotoxic concentration range” value (SARS-CoV-2 Nsp5 [2]) was 8 to 64 µM, the “benefit in the treatment of COVID-19” value (COVID-19; COVID-19 patients, clinical trials) was “little to no benefit” and the “benefit in COVID-19 patients” value (COVID-19; multiple clinical trials) was “no significant benefit”. For the same compound, the “cytotoxicity (MTT)” value (HEK293T reporter cells [3]) was “cytotoxic at all of the tested active concentrations”.

In the case of `COc1cccc2[nH]c(C(=O)N[C@@H](CC(C)C)C(=O)N[C@@H](C[C@@H]3CCNC3=O)C(=O)CO)cc12` [PF-00835231], the non-cytotoxic concentrations (HEK293T reporter cells [4]) is reported as no more than 50 µM.

In the case of `COc1cccc2[nH]c(C(=O)N[C@@H](CC(C)C)C(=O)N[C@@H](C[C@@H]3CCNC3=O)C(=O)COP(=O)(O)O)cc12` [Lufotrelvir], the oral bioavailability ([5]; po) is listed as “low” and the systemic clearance [5] is listed as “fast”.
